Experimental data as given in PMC3742170, “Enzymatic Properties of Populus α- and β-NAD-ME Recombinant Proteins” (International Journal of Molecular Sciences, 2013).

T1: PtNAD-ME2 (Populus trichocarpa, UniProt B9MVC4)
T1 construct: gene POPTR_014G043700; mature form without mitochondrial signal peptide; pGEX-6p-3, N-terminal GST cut with PreScission; E. coli BL21
T1 sequence (B9MVC4 36-627): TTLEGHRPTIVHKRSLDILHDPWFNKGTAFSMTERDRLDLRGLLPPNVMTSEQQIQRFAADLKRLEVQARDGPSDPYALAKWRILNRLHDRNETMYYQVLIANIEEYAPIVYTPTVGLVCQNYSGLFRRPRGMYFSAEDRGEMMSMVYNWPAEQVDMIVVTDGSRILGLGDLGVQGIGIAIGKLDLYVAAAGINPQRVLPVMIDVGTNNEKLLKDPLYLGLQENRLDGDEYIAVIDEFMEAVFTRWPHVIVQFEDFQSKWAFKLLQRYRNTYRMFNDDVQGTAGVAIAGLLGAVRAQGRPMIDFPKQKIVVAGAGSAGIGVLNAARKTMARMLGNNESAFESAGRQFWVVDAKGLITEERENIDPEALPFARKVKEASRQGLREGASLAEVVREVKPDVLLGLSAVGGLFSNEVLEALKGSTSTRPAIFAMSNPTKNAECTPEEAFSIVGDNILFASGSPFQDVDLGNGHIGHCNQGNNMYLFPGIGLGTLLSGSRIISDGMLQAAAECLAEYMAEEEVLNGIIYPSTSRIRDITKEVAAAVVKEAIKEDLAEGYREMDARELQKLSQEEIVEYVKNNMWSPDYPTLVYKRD

T2: PtNAD-ME1 (Populus trichocarpa, UniProt A0ACC0TE46)
T2 construct: gene POPTR_002G135300v4; mature form without mitochondrial signal peptide; pGEX-6p-3, N-terminal GST cut with PreScission; E. coli BL21; about 67 kDa on SDS-PAGE; EC 1.1.1.39
T2 sequence (A0ACC0TE46 34-627): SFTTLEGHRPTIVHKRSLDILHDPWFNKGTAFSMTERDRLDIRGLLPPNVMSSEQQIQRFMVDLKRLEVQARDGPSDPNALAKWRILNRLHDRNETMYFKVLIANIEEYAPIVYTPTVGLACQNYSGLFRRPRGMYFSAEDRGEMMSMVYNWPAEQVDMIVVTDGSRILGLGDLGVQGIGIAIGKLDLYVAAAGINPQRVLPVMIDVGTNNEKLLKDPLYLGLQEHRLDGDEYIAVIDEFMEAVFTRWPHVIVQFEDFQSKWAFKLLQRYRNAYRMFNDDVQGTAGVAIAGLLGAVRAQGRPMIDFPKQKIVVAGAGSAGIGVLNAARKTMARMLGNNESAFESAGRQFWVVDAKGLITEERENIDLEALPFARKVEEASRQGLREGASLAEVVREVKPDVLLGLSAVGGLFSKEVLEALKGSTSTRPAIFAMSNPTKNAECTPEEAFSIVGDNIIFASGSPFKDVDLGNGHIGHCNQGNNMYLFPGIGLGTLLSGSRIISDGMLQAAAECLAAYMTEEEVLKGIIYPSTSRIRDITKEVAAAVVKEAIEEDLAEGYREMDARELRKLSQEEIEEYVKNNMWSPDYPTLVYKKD

T3: PtNAD-ME3 (Populus trichocarpa, UniProt B9GPX3)
T3 construct: gene POPTR_002G156000; mature form without mitochondrial signal peptide; pGEX-6p-3, N-terminal GST cut with PreScission; E. coli BL21; about 61 kDa on SDS-PAGE
T3 sequence (B9GPX3 23-607): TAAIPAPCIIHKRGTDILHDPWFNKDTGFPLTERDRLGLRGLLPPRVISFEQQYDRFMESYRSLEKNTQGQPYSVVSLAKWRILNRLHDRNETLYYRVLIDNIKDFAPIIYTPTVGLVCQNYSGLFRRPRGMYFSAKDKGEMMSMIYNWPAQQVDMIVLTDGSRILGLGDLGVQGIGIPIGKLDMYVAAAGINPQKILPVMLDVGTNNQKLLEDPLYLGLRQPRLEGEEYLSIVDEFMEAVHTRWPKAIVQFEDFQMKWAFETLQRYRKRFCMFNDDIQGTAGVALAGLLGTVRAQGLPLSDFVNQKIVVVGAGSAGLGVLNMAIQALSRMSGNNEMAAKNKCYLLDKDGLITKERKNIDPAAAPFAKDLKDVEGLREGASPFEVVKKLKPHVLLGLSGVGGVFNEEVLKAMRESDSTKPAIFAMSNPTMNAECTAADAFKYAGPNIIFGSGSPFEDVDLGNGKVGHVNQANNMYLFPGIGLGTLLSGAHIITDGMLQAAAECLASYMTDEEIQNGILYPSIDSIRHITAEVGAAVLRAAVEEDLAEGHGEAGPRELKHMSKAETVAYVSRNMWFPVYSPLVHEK

T4: PtNAD-ME4 (Populus trichocarpa, UniProt A0A2K1XS69)
T4 construct: gene POPTR_014G079900; mature form without mitochondrial signal peptide; pGEX-6p-3, N-terminal GST cut with PreScission; E. coli BL21
T4 sequence (A0A2K1XS69 22-607): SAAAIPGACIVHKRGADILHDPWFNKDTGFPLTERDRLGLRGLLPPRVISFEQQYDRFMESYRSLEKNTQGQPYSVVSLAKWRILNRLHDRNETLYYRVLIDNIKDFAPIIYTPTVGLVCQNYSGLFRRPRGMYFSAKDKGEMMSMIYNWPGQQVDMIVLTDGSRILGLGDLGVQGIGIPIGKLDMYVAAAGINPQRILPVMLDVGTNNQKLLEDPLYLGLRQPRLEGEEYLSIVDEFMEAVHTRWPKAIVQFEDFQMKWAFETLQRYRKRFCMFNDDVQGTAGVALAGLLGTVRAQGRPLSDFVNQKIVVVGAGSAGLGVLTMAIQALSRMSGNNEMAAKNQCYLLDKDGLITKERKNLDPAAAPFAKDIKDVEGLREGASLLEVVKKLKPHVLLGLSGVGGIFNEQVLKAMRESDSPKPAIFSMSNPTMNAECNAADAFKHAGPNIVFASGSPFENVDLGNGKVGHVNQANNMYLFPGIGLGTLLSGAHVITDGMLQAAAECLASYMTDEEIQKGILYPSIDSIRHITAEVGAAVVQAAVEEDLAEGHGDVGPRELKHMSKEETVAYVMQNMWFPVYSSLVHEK


Key:
PtNAD-ME2 = biological target: T1, PtNAD-ME2; experiment: inhibition of malate decarboxylation, NADH at […] nm; format: biochemical; conditions: inhibitor; nonsaturating malate, saturating NAD, optimum pH 7.2
PtNAD-ME1 = biological target: T2, PtNAD-ME1; experiment: inhibition of malate decarboxylation, NADH at […] nm; format: biochemical; conditions: inhibitor; nonsaturating malate, saturating NAD, optimum pH 7.2
PtNAD-ME3 = biological target: T3, PtNAD-ME3; experiment: inhibition of malate decarboxylation, NADH at […] nm; format: biochemical; conditions: inhibitor; nonsaturating malate, saturating NAD, optimum pH 7.4
PtNAD-ME4 = biological target: T4, PtNAD-ME4; experiment: inhibition of malate decarboxylation, NADH at […] nm; format: biochemical; conditions: inhibitor; nonsaturating malate, saturating NAD, optimum pH 7.4
purified protein [1] = substrate: O=C(O)C[C@H](O)C(=O)O; experiment: purified protein; format: biochemical, Populus trichocarpa; conditions: saturating NAD, 10 mM MnCl2, 150 mM Mes/NaOH, optimum pH 7.4
purified protein [2] = substrate: NC(=O)c1ccc[n+]([C@@H]2O[C@H](COP(=O)(O)OP(=O)(O)OC[C@H]3O[C@@H](n4cnc5c(N)ncnc54)[C@H](O)[C@@H]3O)[C@@H](O)[C@H]2O)c1; experiment: purified protein; format: biochemical, Populus trichocarpa; conditions: saturating malate, 10 mM MnCl2, 150 mM Mes/NaOH, optimum pH 7.4

| Molecule | % activity (PtNAD-ME2) | % activity (PtNAD-ME1) | % activity (PtNAD-ME3) | % activity (PtNAD-ME4) | Km (purified protein [1]) [µM] | Km (purified protein [2]) [µM] | kcat (purified protein [2]) [s⁻¹] | kcat/Km (purified protein [2]) [M⁻¹ s⁻¹] |
| --- | --- | --- | --- | --- | --- | --- | --- | --- |
| O=C(O)CC(O)(CC(=O)O)C(=O)O [citrate] | OAA and citrate inhibited the activities of all | OAA and citrate inhibited the activities of all | OAA and citrate inhibited the activities of all | OAA and citrate inhibited the activities of all |  |  |  |  |
| O=C(O)CC(=O)C(=O)O [oxalacetate] | OAA and citrate inhibited the activities of all | OAA and citrate inhibited the activities of all | OAA and citrate inhibited the activities of all | OAA and citrate inhibited the activities of all |  |  |  |  |
| PtNAD-ME3 (Populus trichocarpa) (protein, mature form without mitochondrial signal peptide; pGEX-6p-3, N-terminal GST cut with PreScission; E. coli BL21; about 61 kDa on SDS-PAGE) TAAIPAPCIIHKRGTDILHDPWFNKDTGFPLTERDRLGLRGLLPPRVISFEQQYDRFMESYRSLEKNTQGQPYSVVSLAKWRILNRLHDRNETLYYRVLIDNIKDFAPIIYTPTVGLVCQNYSGLFRRPRGMYFSAKDKGEMMSMIYNWPAQQVDMIVLTDGSRILGLGDLGVQGIGIPIGKLDMYVAAAGINPQKILPVMLDVGTNNQKLLEDPLYLGLRQPRLEGEEYLSIVDEFMEAVHTRWPKAIVQFEDFQMKWAFETLQRYRKRFCMFNDDIQGTAGVALAGLLGTVRAQGLPLSDFVNQKIVVVGAGSAGLGVLNMAIQALSRMSGNNEMAAKNKCYLLDKDGLITKERKNIDPAAAPFAKDLKDVEGLREGASPFEVVKKLKPHVLLGLSGVGGVFNEEVLKAMRESDSTKPAIFAMSNPTMNAECTAADAFKYAGPNIIFGSGSPFEDVDLGNGKVGHVNQANNMYLFPGIGLGTLLSGAHIITDGMLQAAAECLASYMTDEEIQNGILYPSIDSIRHITAEVGAAVLRAAVEEDLAEGHGEAGPRELKHMSKAETVAYVSRNMWFPVYSPLVHEK |  |  |  |  | 1300 | 450 | 1.3 | 2900 |
